In US20190314345A1, “CALCINEURIN INHIBITOR AND NON-STEROIDAL ANTI-INFLAMMATORY DRUG TO REDUCE RISK OF POST-IMAGING PANCREATITIS” (UNIVERSITY OF PITTSBURGH - OF THE COMMONWEALTH SYSTEM OF …, priority 2016, published 2019):

Legend:
[1] = test system: IL-6, GADD45B, IL-1β expression; assay: Real-time PCR gene expression from the pancreatic head; type: in vivo, mouse; details: RC exposure, with or without FK506 pretreatment
Experimental: Total RNA from the pancreatic head was obtained by homogenizing 40 mg of tissue in 2 ml of TRIzol reagent (Life Technologies; Grand Island N.Y.) at 4° C. and immediately flash frozen in liquid nitrogen. Samples were thawed on ice and centrifuged at 12,000×g for 10 min at 4° C. The supernatant was diluted with 200 μl of chloroform and centrifuged at 12,000×g for 15 min at 4° C. The upper aqueous phase was treated with 0.5 ml of isopropanol and centrifuged at 10,000×g for 10 min at 4° C. The pellet was resuspended with 150 μl of 75% ethanol and centrifuged at 7500×g for 5 min at 4° C. The pellet was air-dried and dissolved in 100 μl of nuclease-free water. Total RNA samples were used to generate cDNA using the iScript Advanced cDNA synthesis Kit (Bio Rad; Hercules, Calif.).
Quantitative real-time PCR (rtPCR) was performed to determine the relative expression of the cytokines IL-6 and IL-1β as well as the cell growth arrest and DNA-damage inducible gene GADD45B. The primer pairs for each as well as a GAPDH control were obtained as part of the PrimePCR-PreAMP SYBR Green Assay (Bio Rad; unique assay ID # qMmuCEP0054186, qMmuCID0005641, qMmuCEP0039581). rtPCR reactions were carried out in 20 μl volume reactions using the SsoAdvanced Universal Supermix SYBR Green system (Bio Rad). The reactions contained 1× SsoAdvanced Universal SYBR Green Supermix, 300 nM forward Primer, 300 nM reverse primer and 100 ng cDNA. rtPCR conditions were 95° C. for 10 sec and 60° C. for 30 sec for 35 cycles on a Bio Rad CFX96 Touch thermocycler (Bio Rad). Results for the expression of mRNA were normalized to expression of […] and are represented relative to expression levels for each of the control groups.

PEP model in mice [2] = assay: PEP model with intraductal delivery of Cn inhibitors with the radiocontrast; type: in vivo, mouse; details: CsA 10 μM
Experimental: PEP was induced as previously described^73. Briefly, 100 μl iohexol (Omnipaque, GE Healthcare, Princeton, N.J.) was infused retrograde into the biliopancreatic duct at a rate of 20 μl/min for 5 min. Mice from the ductal manipulation (DM) group received retrograde infusion of 50 μl normal saline into pancreatic ductal at a lower rate of 10 μl/min for 5 min. Mice were euthanized 24 hr after PEP induction by CO2 inhalation and cervical dislocation. Mice from the sham group received laparotomy only. Blood was collected by retro-orbital bleed 6 h after PEP induction. […] Serum amylase was measured using a Phadebas Kit (Amersham Pharmacia, Rochester, N.Y.) according to the manufacturer's instruction. The pancreas, duodenum, and spleen were placed en bloc in a cassette in order to maintain anatomical orientation (FIG. 18A). The tissues were fixed in 4% paraformaldehyde at room temperature for 24 hr. Paraffin-embedded sections were stained with hematoxylin and eosin (HE). Ten systematically selected fields at 200× magnification were graded in a blinded fashion from the head of the pancreas, which was identified by its juxtaposition to the duodenum. […] Labelled areas within the parenchyma were marked as edema, and their surface area was calculated as a percentage of the total parenchymal area.

[3] = test system: duct manipulation (DM) model in mice; assay: Duct manipulation (DM) mild model with intraductal Cn inhibitors; type: in vivo, mouse; details: FK506 1 μM, CsA 10 μM
Experimental: PEP was induced as previously described^73. Briefly, 100 μl iohexol (Omnipaque, GE Healthcare, Princeton, N.J.) was infused retrograde into the biliopancreatic duct at a rate of 20 μl/min for 5 min. Mice from the ductal manipulation (DM) group received retrograde infusion of 50 μl normal saline into pancreatic ductal at a lower rate of 10 μl/min for 5 min. Mice were euthanized 24 hr after PEP induction by CO2 inhalation and cervical dislocation. Mice from the sham group received laparotomy only. The pancreas, duodenum, and spleen were placed en bloc in a cassette in order to maintain anatomical orientation (FIG. 18A). The tissues were fixed in 4% paraformaldehyde at room temperature for 24 hr. Paraffin-embedded sections were stained with hematoxylin and eosin (HE). Ten systematically selected fields at 200× magnification were graded in a blinded fashion from the head of the pancreas, which was identified by its juxtaposition to the duodenum. The grading score gave equal weight (from 0 to 3) for edema, inflammatory infiltration, and necrosis, as described^5. Edema indices were further delineated objectively by performing intensity thresholding using ImageJ software (NIH, Bethesda, Md.). […] Labelled areas within the parenchyma were marked as edema, and their surface area was calculated as a percentage of the total parenchymal area.

PEP model in mice [4] = details: in vivo model of PEP in mice; earlier work; cited from earlier work

## C=CC[C@@H]1/C=C(\C)C[C@H](C)C[C@H](OC)[C@H]2O[C@@](O)(C(=O)C(=O)N3CCCC[C@H]3C(=O)O[C@H](/C(C)=C/[C@@H]3CC[C@@H](O)[C@H](OC)C3)[C@H](C)[C@@H](O)CC1=O)[C@H](C)C[C@@H]2OC [FK506, tacrolimus]
[1]
  gene expression of GADD45B: significant reduction
  gene expression of IL-1β: trend toward reduction
  gene expression of IL-6: significant reduction
PEP model in mice [2]; 6 hr after infusion, intraductal FK506 1 μM
  serum amylase elevations seen with PEP: reduced
PEP model in mice [2]; intraductal with radiocontrast, FK506 1 μM, down to sham levels
  reduction of severity of the moderate model of PEP: 61%
[3]
  effect on mild histological damage seen with DM: did not affect
PEP model in mice [4]
  effect of systemic frequent prophylactic dosing on PEP: prevented PEP
